Experimental data taken from patent US8906904B2, “Alkoxy pyrazoles as soluble guanylate cyclase activators” (Boehringer Ingelheim International GmbH, priority 2012, dated 2014).
In brackets after ≈: the same amount, converted by molar mass. Values belong to the compound of their own block, whether it stands above or below them.

Experiments:
[1] = Assessment of solubility (McIlvaine buffers, 24 h shake, UPLC-UV); assay type: physicochemical; details: kinetic from dmso stock
Outline: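 Compounds from 10 mM DMSO stocks were shaken for 24 h at room temperature in McIlvaine buffers at pH 2.2, 4.5 and 6.8 (2.5% v/v DMSO final), then filtered. Filtrates were quantified by UPLC-UV at 254 nm against a 50:50 acetonitrile/water reference assumed fully dissolved, as a single determination.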

[2] = human liver microsome (HLM) metabolic stability assay; assay type: in vitro ADME; details: human liver microsomes; % hepatic blood flow calculated from t1/2
Outline: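 Compounds at 1 uM incubated with human liver microsomes plus NADPH at 37° C., sampled at 0, 5, 15, 30 and 60 min into cold acetonitrile and quantified by LC/MS/MS. t½ from the slope of ln % remaining vs time; CLint, CLh and % Qh derived from it (n=1).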

Structure (SMILES): COc1c(C(=O)O)cnn1-c1cccc(-c2cccc(C)c2OCc2ccc3c(c2)CCN(CC2CC(F)(F)C2)C3)n1 [Compound 26]
solubility at 24 h ([1]; pH 2.2, aqueous buffer): 100 µg/mL (≈ 174 µM) | solubility at 24 h ([1]; pH 4.5, aqueous buffer): 80 µg/mL (≈ 139 µM) | solubility at 24 h ([1]; pH 6.8, aqueous buffer): 80 µg/mL (≈ 139 µM) | HLM (% Qh) [2]: 29 % Qh

Structure (SMILES): COc1c(C(=O)O)cnn1-c1cccc(-c2cc(C)cc(C)c2OCc2ccc3c(c2)CCN(C2CCOCC2)C3)n1 [Compound 181]
solubility at 24 h ([1]; pH 2.2, aqueous buffer): 110 µg/mL (≈ 193 µM) | solubility at 24 h ([1]; pH 4.5, aqueous buffer): 87 µg/mL (≈ 153 µM) | solubility at 24 h ([1]; pH 6.8, aqueous buffer): 88 µg/mL (≈ 155 µM) | HLM (% Qh) [2]: <24 % Qh

Structure (SMILES): COc1c(C(=O)O)cnn1-c1cccc(-c2cccc(C)c2OCc2ccc3c(c2C)CCN(C2CCOCC2)CC3)n1 [Compound 184]
solubility at 24 h ([1]; pH 2.2, aqueous buffer): 89 µg/mL (≈ 153 µM) | solubility at 24 h ([1]; pH 4.5, aqueous buffer): 76 µg/mL (≈ 130 µM) | solubility at 24 h ([1]; pH 6.8, aqueous buffer): 76 µg/mL (≈ 130 µM) | HLM (% Qh) [2]: <24 % Qh

Structure (SMILES): COc1c(C(=O)O)cnn1-c1cccc(-c2cccc(C)c2OCc2ccc3c(c2Cl)CCN(C2COC2)C3)n1 [Compound 17]
solubility at 24 h ([1]; pH 2.2, aqueous buffer): 97 µg/mL (≈ 173 µM) | solubility at 24 h ([1]; pH 4.5, aqueous buffer): 62 µg/mL (≈ 111 µM) | solubility at 24 h ([1]; pH 6.8, aqueous buffer): 85 µg/mL (≈ 152 µM) | HLM (% Qh) [2]: 31 % Qh

Structure (SMILES): COc1c(C(=O)O)cnn1-c1cccc(-c2cccc(C)c2OCc2ccc3c(c2Cl)CCN(CC2(C)COC2)C3)n1 [Compound 19]
solubility at 24 h ([1]; pH 2.2, aqueous buffer): 96 µg/mL (≈ 163 µM) | solubility at 24 h ([1]; pH 4.5, aqueous buffer): 70 µg/mL (≈ 119 µM) | solubility at 24 h ([1]; pH 6.8, aqueous buffer): 75 µg/mL (≈ 127 µM) | HLM (% Qh) [2]: 29 % Qh

Structure (SMILES): COc1c(C(=O)O)cnn1-c1cccc(-c2cccc(C)c2OCc2ccc3c(c2C)CCN(CC2(C)COC2)C3)n1 [Compound 28]
solubility at 24 h ([1]; pH 2.2, aqueous buffer): 110 µg/mL (≈ 193 µM) | solubility at 24 h ([1]; pH 4.5, aqueous buffer): 83 µg/mL (≈ 146 µM) | solubility at 24 h ([1]; pH 6.8, aqueous buffer): 90 µg/mL (≈ 158 µM) | HLM (% Qh) [2]: <24 % Qh

Further lines, results first:

solubility at 24 h ([1]; pH 2.2, aqueous buffer): 110 µg/mL (≈ 189 µM) | solubility at 24 h ([1]; pH 4.5, aqueous buffer): 83 µg/mL (≈ 142 µM) | solubility at 24 h ([1]; pH 6.8, aqueous buffer): 80 µg/mL (≈ 137 µM) | HLM (% Qh) [2]: <24 % Qh
Structure (SMILES): CCOc1c(C(=O)O)cnn1-c1cccc(-c2cccc(C)c2OCc2cc(C)c3c(c2)CCN([C@@H]2CCCOC2)C3)n1 [Compound 195]

solubility at 24 h ([1]; pH 2.2, aqueous buffer): 90 µg/mL (≈ 162 µM) | solubility at 24 h ([1]; pH 4.5, aqueous buffer): 75 µg/mL (≈ 135 µM) | solubility at 24 h ([1]; pH 6.8, aqueous buffer): 71 µg/mL (≈ 128 µM) | HLM (% Qh) [2]: <24 % Qh
Structure (SMILES): COc1c(C(=O)O)cnn1-c1cccc(-c2cccc(C)c2OCc2ccc3c(c2)CN(CC2COCCO2)C3)n1 (stereo not drawn) [Compound 247]

solubility at 24 h ([1]; pH 2.2, aqueous buffer): 98 µg/mL (≈ 168 µM) | solubility at 24 h ([1]; pH 4.5, aqueous buffer): 83 µg/mL (≈ 142 µM) | solubility at 24 h ([1]; pH 6.8, aqueous buffer): 86 µg/mL (≈ 148 µM) | HLM (% Qh) [2]: 52 % Qh
Structure (SMILES): CCOc1c(C(=O)O)cnn1-c1cccc(-c2cccc(C)c2OCc2ccc3c(c2C)CCN(C[C@H]2CCO2)CC3)n1 [Compound 226]

solubility at 24 h ([1]; pH 2.2, aqueous buffer): 110 µg/mL (≈ 189 µM) | solubility at 24 h ([1]; pH 4.5, aqueous buffer): 83 µg/mL (≈ 142 µM) | solubility at 24 h ([1]; pH 6.8, aqueous buffer): 79 µg/mL (≈ 136 µM) | HLM (% Qh) [2]: <24 % Qh
Structure (SMILES): CCOc1c(C(=O)O)cnn1-c1cccc(-c2cccc(C)c2OCc2cc(C)c3c(c2)CCN([C@H]2CCCOC2)C3)n1 [Compound 197]

solubility at 24 h ([1]; pH 2.2, aqueous buffer): 94 µg/mL (≈ 161 µM) | solubility at 24 h ([1]; pH 4.5, aqueous buffer): 75 µg/mL (≈ 129 µM) | solubility at 24 h ([1]; pH 6.8, aqueous buffer): 74 µg/mL (≈ 127 µM) | HLM (% Qh) [2]: <24 % Qh
Structure (SMILES): CCc1cc(COc2c(C)cccc2-c2cccc(-n3ncc(C(=O)O)c3OC)n2)cc2c1CN(C1CCOCC1)CC2 [Compound 248]

solubility at 24 h ([1]; pH 2.2, aqueous buffer): 100 µg/mL (≈ 175 µM) | solubility at 24 h ([1]; pH 4.5, aqueous buffer): 72 µg/mL (≈ 126 µM) | solubility at 24 h ([1]; pH 6.8, aqueous buffer): 94 µg/mL (≈ 165 µM) | HLM (% Qh) [2]: <24 % Qh
Structure (SMILES): CCOc1c(C(=O)O)cnn1-c1cccc(-c2cccc(C)c2OCc2ccc3c(c2OC)CCN(C2COC2)C3)n1 [Compound 221]

solubility at 24 h ([1]; pH 2.2, aqueous buffer): 110 µg/mL (≈ 184 µM) | solubility at 24 h ([1]; pH 4.5, aqueous buffer): 96 µg/mL (≈ 161 µM) | solubility at 24 h ([1]; pH 6.8, aqueous buffer): 83 µg/mL (≈ 139 µM) | HLM (% Qh) [2]: <24 % Qh
Structure (SMILES): CCOc1c(C(=O)O)cnn1-c1cccc(-c2cccc(C)c2OCc2ccc3c(c2C)CCN(C[C@@H]2CCCCO2)C3)n1 [Compound 236]

solubility at 24 h ([1]; pH 2.2, aqueous buffer): 100 µg/mL (≈ 167 µM) | solubility at 24 h ([1]; pH 4.5, aqueous buffer): 77 µg/mL (≈ 129 µM) | solubility at 24 h ([1]; pH 6.8, aqueous buffer): 86 µg/mL (≈ 144 µM) | HLM (% Qh) [2]: <24 % Qh
Structure (SMILES): CCOc1c(C(=O)O)cnn1-c1cccc(-c2cccc(C)c2OCc2ccc3c(c2OC)CCN(C2CCOCC2)C3)n1 [Compound 220]

solubility at 24 h ([1]; pH 2.2, aqueous buffer): 82 µg/mL (≈ 137 µM) | solubility at 24 h ([1]; pH 4.5, aqueous buffer): 72 µg/mL (≈ 120 µM) | solubility at 24 h ([1]; pH 6.8, aqueous buffer): 73 µg/mL (≈ 122 µM) | HLM (% Qh) [2]: <24 % Qh
Structure (SMILES): COc1c(C(=O)O)cnn1-c1cccc(-c2cccc(C)c2OCc2ccc3c(c2C)CCN(C[C@@H]2COCCO2)CC3)n1 [Compound 204]
